The record followed here is patent US10022374B2, “Certain protein kinase inhibitors” (Shanghai Fochon Pharmaceutical Co., Ltd., priority 2013, dated 2018).

Read-outs that look alike come from different tables or passages of the source.

Test [1] has as its system A-375 cells. Put plainly: Inhibition of cell proliferation (MTS), A-375 cells. The class given is cell-based. Particulars: Homo sapiens, A-375, 72 h. The protocol:
(§1) MTS testing kit was purchased from Promega. The DMEM, RPMI-1640 and Fetal bovine serum were purchased from Gibco. Dimethyl sulfoxide (DMSO) was purchased from Sigma.
(§2) To investigate whether a compound is able to inhibit the activity of MEK in cells, a mechanism-based assay using A-375 and HT-29 cell was developed. In this assay, inhibition of MEK was detected by the inhibition of A-375 and HT-29 cells proliferation. A-375 and HT-29 cells were cultured in culture flasks to 40-80% confluence respectively in DMEM and RPMI-1640 plus 10% fetal bovine serum. Cells were collected and plated onto 96-well plates at desired cell density (A-375: 3000 cells/well; HT-29: 5000 cells/well). Plates were incubated overnight at 37° C., with 5% CO2 to adhere. Compounds were added to the plates. The final compound concentrations were […], 12.35, 4.12, 1.37, 0.46 and 0.15 nM, respectively. Place plates at 37° C., with 5% CO2 for 72 h. 10 μl MTS were added to each well and incubate the plates for exactly 2 hours. Absorbance was measured at 490 nm. […] was calculated using GraphPad Prism 5.0.

Test [2] deals with HT-29 cells. Briefly: Inhibition of cell proliferation (MTS), HT-29 cells. In kind it is cell-based. Particulars: Homo sapiens, HT-29, 72 h. The protocol: as §1, §2
Setting [3] is: A-375 cells, 3000 cells/well, 72 h, MTS, absorbance 490 nm, read-out: A375 IC50.
Setting [4] is: HT-29 cells, 5000 cells/well, 72 h, MTS, absorbance 490 nm, read-out: HT29 IC50.

Regarding `CC(=O)Nc1cccc(-c2nn(C3CC3)c(=O)c3c(Nc4ccc(I)cc4F)c(F)c(=O)n(C)c23)c1` [Example 1, N-(3-(6-cyclopropyl-3-fluoro-4-(2-fluoro-4-iodophenylamino)-1-methyl-2,5-dioxo-1,2,5,6-tetrahydropyrido[2,3-d]pyridazin-8-yl)phenyl)acetamide], the IC50 in test [1] (read-out: A375 IC50 (nM)) stood at 1.2 nM; in test [2] (read-out: HT29 IC50 (nM)), 2.4 nM.
Regarding `CCC(=O)Nc1cccc(-c2nn(C3CC3)c(=O)c3c(Nc4ccc(I)cc4F)c(F)c(=O)n(C)c23)c1` [Example 2, N-(3-(6-cyclopropyl-3-fluoro-4-(2-fluoro-4-iodophenylamino)-1-methyl-2,5-dioxo-1,2,5,6-tetrahydropyrido[2,3-d]pyridazin-8-yl)phenyl)propionamide], the half-inhibitory concentration (IC50) was 10.6 nM in test [1] (setting [3]) and 13.7 nM in test [2] (setting [4]).
The like results for `CC(C)C(=O)Nc1cccc(-c2nn(C3CC3)c(=O)c3c(Nc4ccc(I)cc4F)c(F)c(=O)n(C)c23)c1` [Example 3, N-(3-(6-cyclopropyl-3-fluoro-4-(2-fluoro-4-iodophenylamino)-1-methyl-2,5-dioxo-1,2,5,6-tetrahydropyrido[2,3-d]pyridazin-8-yl)phenyl)isobutyramide] were, in that order, 15.3 nM and 41.4 nM.
The like results for `Cn1c(=O)c(F)c(Nc2ccc(I)cc2F)c2c(=O)n(C3CC3)nc(-c3cccc(NC(=O)C4CC4)c3)c21` [Example 4, N-(3-(6-cyclopropyl-3-fluoro-4-(2-fluoro-4-iodophenylamino)-1-methyl-2,5-dioxo-1,2,5,6-tetrahydropyrido[2,3-d]pyridazin-8-yl)phenyl)cyclopropanecarboxamide] were, in that order, 26.6 nM and 41.9 nM.
Turning to `Cn1c(=O)c(F)c(Nc2ccc(I)cc2F)c2c(=O)n(C3CC3)nc(-c3cccc(NS(C)(=O)=O)c3)c21` [Example 5, N-(3-(6-cyclopropyl-3-fluoro-4-(2-fluoro-4-iodophenylamino)-1-methyl-2,5-dioxo-1,2,5,6-tetrahydropyrido[2,3-d]pyridazin-8-yl)phenyl)methanesulfonamide], the IC50 in test [1] (setting [3]) stood at 4 nM; in test [2] (setting [4]), 5.1 nM.
Taken in the same sequence, the figures for `CCS(=O)(=O)Nc1cccc(-c2nn(C3CC3)c(=O)c3c(Nc4ccc(I)cc4F)c(F)c(=O)n(C)c23)c1` [Example 6, N-(3-(6-cyclopropyl-3-fluoro-4-(2-fluoro-4-iodophenylamino)-1-methyl-2,5-dioxo-1,2,5,6-tetrahydropyrido[2,3-d]pyridazin-8-yl)phenyl)ethanesulfonamide] were 4.8 nM and 6.4 nM.
As for `CC(C)S(=O)(=O)Nc1cccc(-c2nn(C3CC3)c(=O)c3c(Nc4ccc(I)cc4F)c(F)c(=O)n(C)c23)c1` [Example 7, N-(3-(6-cyclopropyl-3-fluoro-4-(2-fluoro-4-iodophenylamino)-1-methyl-2,5-dioxo-1,2,5,6-tetrahydropyrido[2,3-d]pyridazin-8-yl)phenyl)propane-2-sulfonamide], the IC50 was determined as 3.5 nM in test [1] (setting [3]) and 4.1 nM in test [2] (setting [4]).
The like results for `C=CCn1nc(-c2cccc(NS(=O)(=O)C3CC3)c2)c2c(c(Nc3ccc(I)cc3F)c(F)c(=O)n2C)c1=O` [Example 8, N-(3-(6-allyl-3-fluoro-4-(2-fluoro-4-iodophenylamino)-1-methyl-2,5-dioxo-1,2,5,6-tetrahydropyrido[2,3-d]pyridazin-8-yl)phenyl)cyclopropanesulfonamide] were, in that order, 5.4 nM and 5.4 nM.
With `CC(=O)Nc1cccc(-c2nn(C(C)C)c(=O)c3c(Nc4ccc(I)cc4F)c(F)c(=O)n(C)c23)c1` [Example 9, N-(3-(3-fluoro-4-(2-fluoro-4-iodophenylamino)-6-isopropyl-1-methyl-2,5-dioxo-1,2,5,6-tetrahydropyrido[2,3-d]pyridazin-8-yl)phenyl)acetamide], the values for the half-inhibitory concentration (IC50) in test [1] (setting [3]) and in test [2] (setting [4]) were 44 nM and 47.3 nM, respectively.
Taken in the same sequence, the figures for `CCC(=O)Nc1cccc(-c2nn(C(C)C)c(=O)c3c(Nc4ccc(I)cc4F)c(F)c(=O)n(C)c23)c1` [Example 10, N-(3-(3-fluoro-4-(2-fluoro-4-iodophenylamino)-6-isopropyl-1-methyl-2,5-dioxo-1,2,5,6-tetrahydropyrido[2,3-d]pyridazin-8-yl)phenyl)propionamide] were 61.2 nM and 59.6 nM.
Taken in the same sequence, the figures for `CC(C)C(=O)Nc1cccc(-c2nn(C(C)C)c(=O)c3c(Nc4ccc(I)cc4F)c(F)c(=O)n(C)c23)c1` [Example 11, N-(3-(3-fluoro-4-(2-fluoro-4-iodophenylamino)-6-isopropyl-1-methyl-2,5-dioxo-1,2,5,6-tetrahydropyrido[2,3-d]pyridazin-8-yl)phenyl)isobutyramide] were 198 nM and 180 nM.
The like results for `CC(C)n1nc(-c2cccc(NC(=O)C3CC3)c2)c2c(c(Nc3ccc(I)cc3F)c(F)c(=O)n2C)c1=O` [Example 12, N-(3-(3-fluoro-4-(2-fluoro-4-iodophenylamino)-6-isopropyl-1-methyl-2,5-dioxo-1,2,5,6-tetrahydropyrido[2,3-d]pyridazin-8-yl)phenyl)cyclopropanecarboxamide] were, in that order, 199 nM and 192 nM.
For `CC(C)n1nc(-c2cccc(NS(C)(=O)=O)c2)c2c(c(Nc3ccc(I)cc3F)c(F)c(=O)n2C)c1=O` [Example 13, N-(3-(3-fluoro-4-(2-fluoro-4-iodophenylamino)-6-isopropyl-1-methyl-2,5-dioxo-1,2,5,6-tetrahydropyrido[2,3-d]pyridazin-8-yl)phenyl)methanesulfonamide], the figures for the IC50 in test [1] (setting [3]) and in test [2] (setting [4]) were 26.2 nM and 87.4 nM, respectively.
The like results for `CCS(=O)(=O)Nc1cccc(-c2nn(C(C)C)c(=O)c3c(Nc4ccc(I)cc4F)c(F)c(=O)n(C)c23)c1` [Example 14, N-(3-(3-fluoro-4-(2-fluoro-4-iodophenylamino)-6-isopropyl-1-methyl-2,5-dioxo-1,2,5,6-tetrahydropyrido[2,3-d]pyridazin-8-yl)phenyl)ethanesulfonamide] were, in that order, 19.6 nM and 6.4 nM.
Regarding `CC(C)n1nc(-c2cccc(NS(=O)(=O)C(C)C)c2)c2c(c(Nc3ccc(I)cc3F)c(F)c(=O)n2C)c1=O` [Example 15, N-(3-(3-fluoro-4-(2-fluoro-4-iodophenylamino)-6-isopropyl-1-methyl-2,5-dioxo-1,2,5,6-tetrahydropyrido[2,3-d]pyridazin-8-yl)phenyl)propane-2-sulfonamide], the IC50 in test [1] (setting [3]) stood at 34.9 nM; in test [2] (setting [4]), 152 nM.
With `C=CCn1nc(-c2cccc(NC(C)=O)c2)c2c(c(Nc3ccc(I)cc3F)c(Cl)c(=O)n2C)c1=O` [Example 38, N-(3-(6-allyl-3-chloro-4-(2-fluoro-4-iodophenylamino)-1-methyl-2,5-dioxo-1,2,5,6-tetrahydropyrido[2,3-d]pyridazin-8-yl)phenyl)acetamide], the concentration for half-maximal inhibition (IC50) in test [1] (setting [3]) stood at 20.8 nM.
The same measure, in the same setting: next, `CC(=O)Nc1cccc(-c2nn(CC(O)CO)c(=O)c3c(Nc4ccc(I)cc4F)c(Cl)c(=O)n(C)c23)c1` (centres unmarked) [Example 39, N-(3-(3-chloro-6-(2,3-dihydroxypropyl)-4-((2-fluoro-4-iodophenyl)amino)-1-methyl-2,5-dioxo-1,2,5,6-tetrahydropyrido[2,3-d]pyridazin-8-yl)phenyl)acetamide]: 22.8 nM.
